{
  "source": "patent US4478763A",
  "about": "“Process for preparing alpha-fluorinated alkanediphosphonates” (Univ. of Southern California, priority 1982, dated 1984)",
  "key": {"[1]": {"details": "cited from earlier work"}, "[2]": {"test": "Acidity comparison among methanediphosphonic acids", "format": "physicochemical", "details": "for acidity compared with other methanediphosphonic acids (in words): qualitative comparison", "method": "(§1) The effect of fluorine substitution on the acidity of methanediphosphonic acid is of interest. Using the empirical equations developed by R. G. Grabenstetter et al. J. Phys. Chem. 71, 4194 (1967), estimated pK° values for mono and difluoro methanediphosphonic acid were calculated and compared with experimental pK° data for the parent acid. It should be noted that the cited work set forth two alternative Taft equations for pK°4 on giving an optimal fit with bulkier substitution (e.g., CH3) and one to fit data for less sterically hindering substituents (e.g., H)."}, "[3]": {"test": "Estimation of pK° values of mono and difluoro methanediphosphonic acid from 31P chemical shift data", "format": "physicochemical", "details": "calculated from 31P chemical shift data", "method": "as §1"}, "[4]": {"test_system": "bone resorption", "test": "Inhibition of bone resorption", "details": "compared with known drugs; no test data given"}, "[5]": {"details": "experimental pK° data, parent acid"}, "[6]": {"details": "dichloro methanediphosphonic acid"}},
  "note": "Entries after “also recorded” stand apart in the source; their conditions may differ. Like-named read-outs stand apart in the source and are kept apart here.",
  "data": [
    {"compound": "O=P(O)(O)CP(=O)(O)O", "note": "[MDPA, methanediphosphonic acid]", "values": [
      {"measurement": "pK° 2", "setting": "[1]; [5]", "result": 3.1},
      {"measurement": "pK°3", "setting": "[1]; [5]", "result": 7.4},
      {"measurement": "pK° 4", "setting": "[1]; [5]", "result": 11.0}
    ]},
    {"compound": "O=P(O)(O)C(Cl)(Cl)P(=O)(O)O", "note": "[dichloro methanediphosphonic acid]", "values": [
      {"measurement": "acidity compared with other methanediphosphonic acids (in words)", "setting": "[2]", "result": "weaker than the difluoro substituted acid"},
      {"measurement": "pK°3", "setting": "[1]; [6]", "result": 6.1},
      {"measurement": "pK° 4", "setting": "[1]; [6]", "result": 9.8}
    ]},
    {"compound": "O=P(O)(O)C(F)(F)P(=O)(O)O", "note": "[difluoro MDPA, Difluoro Methanediphosphonic Acid]", "values": [
      {"measurement": "acidity of the fourth proton relative to unfluorinated parent acid", "setting": "[2]; more acidic than the unfluorinated parent acid, calculated", "result": 100, "unit": "fold"},
      {"measurement": "acidity compared with other methanediphosphonic acids (in words)", "setting": "[2]", "result": "strongest of the halomethanediphosphonic acids"},
      {"measurement": "pKa", "setting": "[3]; read-out: pK° 2", "result": 2.57},
      {"measurement": "pKa", "setting": "[3]; read-out: pK° 3", "result": 6.08},
      {"measurement": "pKa", "setting": "[3]; read-out: pK° 4", "result": 9.07},
      {"measurement": "inhibition of bone resorption", "setting": "[4]", "result": "inhibits bone resorption at least as effectively as known drugs"}
    ]},
    {"compound": "O=P(O)(O)C(F)P(=O)(O)O", "note": "[monofluoro MDPA, Fluoro Methanediphosphonic Acid]", "values": [
      {"measurement": "acidity compared with other methanediphosphonic acids (in words)", "setting": "[2]; listed as monofluoro acid", "result": "one order of magnitude below that of the parent acid; also recorded: comparable to that of dichloro methanediphosphonic acid"},
      {"measurement": "pK° 4", "setting": "[3]; listed as monofluoro acid", "result": "approximately 10.1"},
      {"measurement": "pKa", "setting": "[3]; read-out: pK° 2", "result": 2.78},
      {"measurement": "pKa", "setting": "[3]; read-out: pK° 3", "result": 6.62},
      {"measurement": "pKa", "setting": "[3]; read-out: pK° 4", "result": 10.1}
    ]}
  ]
}
